Assay results from patent US4642314A, “Antiulcer compounds” (Nisshin Flour Milling Co., Ltd., priority 1984, dated 1987).

Tests used:
[1] = acute toxicity (LD50), intraperitoneal route in mice; format: in vivo; settings: mouse, in vivo, ip
[2] = tested on: acetic acid-induced ulcer; assay: Acetic acid-induced ulcer (Curative test); format: in vivo, rat (male SD rats); settings: Table 2; rat, 0.05 ml of 15% acetic acid underneath the serosa; lesion area on 14th day
Description: (§1) In the case of reserpine-induced ulcer, the assay was performed according to the description in "Arch. Int. Pharmacodym. Ther. 147,113 (1964)", and in the case of acetic acid-induced ulcer, the assay was performed according to the method described in "Jap. J. Pharmac. 19,418 (1969)", by inducing experimental ulcer in rat and evaluating the effect thereon of the compounds tested.
Groups of rats, each consisting of 6 male SD rats weighing 150-200 g were used. The stomach of ether-anesthesized rat was exposed and while taking acre not to injure blood vessels, 0.05 ml of 15% aqueous acetic acid solution was injected underneath the serosa. On the 14th day, the rats were killed with chloroform, the stomach taken out and the area of the infected lesion measured.
The curative ratio was calculated using the above equation: [formula]

reserpine-induced ulcer = assay: Reserpine-induced ulcer (Preventive test); format: in vivo, rat (male SD rats); settings: Table 1; rat, 100 mg/kg oral, 30 min before reserpine 15 mg/kg i.p.; evaluated at 18 h; read-out: Preventive effect (preventive ratio)
Description: as §1
Groups of rats, each consisting of 6 male SD rats weighing 150-200 g were used. After 24 hours' fasting, a sample compound was orally administered to the rat at the dose of 100 mg/kg body weight, and 30 minutes after the administration, reserpine was intraperitoneally injected at the dose of 15 mg/kg body weight. Eighteen hours after the administration, the rats were killed with chloroform. The stomach was taken out, and severity of the hemorrhaging lesion was evaluated according to the method as above ("Arch. Int. Pharmacodym. Ther. 147,113 (1964)).
The preventive ratio was calculated using the following equation, [formula] wherein the control animals were intraperitoneally given reserpine only, at the dose of 15 mg/kg body weight.

Structure (SMILES) | LD50 ([1]; Table 2) [mg/kg] | Curative effect (curative ratio) [2] | inhibition in vivo at 100 mg/kg (reserpine-induced ulcer) [%] | LD50 ([1]; Table 1) [mg/kg]
CCCCC/C=C\C/C=C\CCCCCCCC(=O)OC/C=C(\C)CCC[C@H](C)CCC[C@H](C)CCCC(C)C [Phytyl linoleate] | > 4000 | + (10%-25%) | – | –
CCCCCCCCCCCCCCCC(=O)OC/C=C(\C)CCC[C@H](C)CCC[C@H](C)CCCC(C)C [Phytyl palmitate] | – | – | 40 to 60 | > 5000
CC(C)=CCCC(C)=CCCC(C)=CCCC(C)=CCCC(C)=CCCC(C)=CCCC(C)=CCCC(C)=CCCC(C)=CCCC(C)=CCCC(=O)OCC=C(C)CCC=C(C)CCC=C(C)CCC=C(C)CCC=C(C)CCC=C(C)CCC=C(C)CCC=C(C)CCC=C(C)C [Solanesyl decaprenylacetate] | – | – | 10 to 40 | > 4000
CC(C)=CCCC(C)=CCCC(=O)OCC=C(C)CCC=C(C)CCC=C(C)CCC=C(C)CCC=C(C)CCC=C(C)CCC=C(C)CCC=C(C)CCC=C(C)CCC=C(C)C [Decaprenyl geranylacetate] | > 5000 | + (10%-25%) | – | –
CC(C)=CCCC(C)=CCCC(C)=CCCC(C)=CCCC(C)=CCCC(C)=CCCC(C)=CCCC(C)=CCCC(C)=CCCC(=O)Oc1c(C)c(C)c2c(c1C)CCC(C)(CCCC(C)CCCC(C)CCCC(C)C)O2 (stereo not drawn) [α-Tocopheryl solanesylacetate] | – | – | 40 to 60 | > 4000
CC(C)=CCCC(C)=CCCC(C)=CCCC(C)=CCCC(C)=CCCC(C)=CCCC(C)=CCCC(C)=CCCC(C)=CCCC(=O)OCC=C(C)CCC=C(C)CCC=C(C)CCC=C(C)CCC=C(C)CCC=C(C)CCC=C(C)CCC=C(C)CCC=C(C)CCC=C(C)C [Decaprenyl solanesylacetate] | > 5000 | + (10%-25%) | – | –
CCCCCCCC/C=C\CCCCCCCC(=O)OCCC(C)CCCC(C)CCCC(C)CCCC(C)C (centres unmarked) [Dihydrophytyl oleate] | – | – | 10 to 40 | > 4000
CCCCCCCCCCC/C=C\CCCCC(=O)OC/C=C(\C)CCC[C@H](C)CCC[C@H](C)CCCC(C)C [Phytyl petroselinate] | > 5000 | ++ (25%-40%) | – | –
CCCCCCCC/C=C\CCCCCCCCCCCC(=O)OC/C=C(\C)CCC[C@H](C)CCC[C@H](C)CCCC(C)C [Phytyl erucate] | – | – | 10 to 40 | > 4000
CCCCCCCCCCC/C=C\CCCCC(=O)OCC=C(C)CCC=C(C)CCC=C(C)CCC=C(C)CCC=C(C)CCC=C(C)CCC=C(C)CCC=C(C)CCC=C(C)CCC=C(C)C [Decaprenyl petroselinate] | > 4000 | ++ (25%-40%) | – | –
CC(C)=CCCC(C)=CCCC(C)=CCCC(C)=CCCC(C)=CCCC(C)=CCCC(C)=CCCC(C)=CCCC(C)=CCCC(C)=CCO [Decaprenol] | > 4000 | +++ (40%-) | – | –
CC(C)=CCCC(C)=CCCC(C)=CCCC(=O)OCC=C(C)CCC=C(C)CCC=C(C)CCC=C(C)CCC=C(C)CCC=C(C)CCC=C(C)CCC=C(C)CCC=C(C)C [Solanesyl farnesylacetate] | – | – | 10 to 40 | > 4000
CC(=O)OCC=C(C)CCC=C(C)CCC=C(C)CCC=C(C)CCC=C(C)CCC=C(C)CCC=C(C)CCC=C(C)CCC=C(C)C [Solanesyl acetate] | – | – | 40 to 60 | > 4000
COC(=O)CCC=C(C)CCC=C(C)CCC=C(C)CCC=C(C)CCC=C(C)CCC=C(C)CCC=C(C)CCC=C(C)CCC=C(C)CCC=C(C)C [Methyl decaprenylacetate] | > 4000 | ++ (25%-40%) | – | –
CC(C)=CCCC(C)CCCC(=O)OC/C=C(\C)CCC[C@H](C)CCC[C@H](C)CCCC(C)C (some centres unmarked) [Phytyl citronellylacetate] | – | – | 10 to 40 | > 5000
CCCCCCCC/C=C/CCCCCCCC(=O)OCC=C(C)CCC=C(C)CCC=C(C)CCC=C(C)CCC=C(C)CCC=C(C)CCC=C(C)CCC=C(C)CCC=C(C)CCC=C(C)C [Decaprenyl elaidate] | – | – | 10 to 40 | > 5000
COC(=O)CCC=C(C)CCC=C(C)CCC=C(C)CCC=C(C)CCC=C(C)CCC=C(C)CCC=C(C)CCC=C(C)CCC=C(C)C [Methyl solanesylacetate] | > 4000 | ++ (25%-40%) | – | –

Structure (SMILES) | LD50 ([1]; Table 2) [mg/kg] | Curative effect (curative ratio) [2] | inhibition in vivo at 100 mg/kg (reserpine-induced ulcer) [%] | LD50 ([1]; Table 1) [mg/kg]
CC(C)=CCCC(C)=CCCC(C)=CCCC(=O)OC/C=C(\C)CCC[C@H](C)CCC[C@H](C)CCCC(C)C [Phytyl farnesylacetate] | – | – | 10 to 40 | > 5000
CCCCCCCCCCCCCCCCCC(=O)OC/C=C(\C)CCC[C@H](C)CCC[C@H](C)CCCC(C)C [Phytyl stearate] | > 4000 | + (10%-25%) | – | –
CC(C)=CCCC(C)=CCCC(=O)OCC=C(C)CCC=C(C)CCC=C(C)CCC=C(C)CCC=C(C)CCC=C(C)CCC=C(C)CCC=C(C)CCC=C(C)C [Solanesyl geranylacetate] | > 4000 | + (10%-25%) | – | –
CCOC(=O)CCC=C(C)CCC=C(C)CCC=C(C)CCC=C(C)CCC=C(C)CCC=C(C)CCC=C(C)CCC=C(C)CCC=C(C)CCC=C(C)C [Ethyl decaprenylacetate] | > 4000 | +++ (40%-) | – | –
COC(=O)CC/C=C(\C)CCC[C@H](C)CCC[C@H](C)CCCC(C)C [Methyl phytlacetate, Methyl phytylacetate] | – | – | 10 to 40 | > 5000
CCCCCCCCCCCCCCCCCC(=O)OCCC(C)CCCC(C)CCCC(C)CCCC(C)C (centres unmarked) [Dihydrophytyl stearate] | – | – | 10 to 40 | > 4000
CC(C)=CCCC(C)=CCCC(C)=CCCC(C)=CCCC(C)=CCCC(C)=CCCC(C)=CCCC(C)=CCCC(C)=CCCC(=O)OCC=C(C)CCC=C(C)CCC=C(C)CCC=C(C)CCC=C(C)CCC=C(C)CCC=C(C)CCC=C(C)CCC=C(C)C [Solanesyl solanesylacetate] | – | – | 10 to 40 | > 4000
CCOC(=O)CCC=C(C)CCC=C(C)CCC=C(C)CCC=C(C)CCC=C(C)CCC=C(C)CCC=C(C)CCC=C(C)CCC=C(C)C [Ethyl solanesylacetate] | > 4000 | ++ (25%-40%) | – | –
CCCCCCCC/C=C/CCCCCCCC(=O)OC/C=C(\C)CCC[C@H](C)CCC[C@H](C)CCCC(C)C [Phytyl elaidate] | > 4000 | + (10%-25%) | – | –
CCCCCC[C@@H](O)C/C=C\CCCCCCCC(=O)OC/C=C(\C)CCC[C@H](C)CCC[C@H](C)CCCC(C)C [Phytyl ricinoleate] | > 5000 | + (10%-25%) | – | –
CC(C)=CCCC(C)=CCCC(C)=CCCC(=O)OCC=C(C)CCC=C(C)CCC=C(C)CCC=C(C)CCC=C(C)CCC=C(C)CCC=C(C)CCC=C(C)CCC=C(C)CCC=C(C)C [Decaprenyl farnesylacetate] | > 5000 | + (10%-25%) | – | –
C/C(=C\CCC(=O)OC/C=C(\C)CCC[C@H](C)CCC[C@H](C)CCCC(C)C)CCC[C@H](C)CCC[C@H](C)CCCC(C)C [Phytyl phytylacetate] | – | – | 40 to 60 | > 5000
CCCCCCCC/C=C/CCCCCCCCCCCC(=O)OCC=C(C)CCC=C(C)CCC=C(C)CCC=C(C)CCC=C(C)CCC=C(C)CCC=C(C)CCC=C(C)CCC=C(C)CCC=C(C)C [Decaprenyl brassidate] | > 4000 | ++ (25%-40%) | – | –
CC(C)=CCCC(C)=CCCC(C)=CCCC(C)=CCCC(C)=CCCC(C)=CCCC(C)=CCCC(C)=CCCC(C)=CCCC(=O)O [Solanesylacetic acid] | > 4000 | + (10%-25%) | – | –
CC(C)=CCCC(C)=CCCC(C)=CCCC(C)=CCCC(C)=CCCC(C)=CCCC(C)=CCCC(C)=CCCC(C)=CCCC(C)=CCCC(=O)OC(C)C [Isopropyl decaprenylacetate] | > 4000 | + (10%-25%) | – | –
CCCCCCCCC1OC1CCCCCCCC(=O)OC/C=C(\C)CCC[C@H](C)CCC[C@H](C)CCCC(C)C (some centres unmarked) [Phytyl 9,10-epoxystearate] | > 5000 | + (10%-25%) | – | –
CC(C)=CCCC(C)=CCCC(C)=CCCC(C)=CCCC(C)=CCCC(C)=CCCC(C)=CCCC(C)=CCCC(C)=CCCC(C)=CCCC(=O)OCCC(C)C [Isoamyl decaprenylacetate] | > 4000 | + (10%-25%) | – | –
